Reference: ChEMBL document CHEMBL4706653, “Ultra-short lipopeptides against gram-positive bacteria while alleviating antimicrobial resistance” (Eur J Med Chem, 2021)
≈ marks a conversion by molar mass, not a printed value. Residues, ends and D or L forms follow the SMILES beside them. *: point of attachment. Palmitoyl = CCCCCCCCCCCCCCCC(=O)*; Myristoyl = CCCCCCCCCCCCCC(=O)*; Octanoyl = CCCCCCCC(=O)*

Legend:
Staphylococcus aureus [1] = assay: Antimicrobial activity against methicillin-resistant Staphylococcus aureus 113 after 18 hrs by broth microdilution method; type: functional
Bacillus subtilis = assay: Antimicrobial activity against Bacillus subtilis ATCC 23857 after 18 hrs by broth microdilution method; type: functional
Staphylococcus aureus [2] = assay: Antimicrobial activity against methicillin-resistant Staphylococcus aureus 75 after 18 hrs by broth microdilution method; type: functional
[3] = tested on: Staphylococcus epidermidis; assay: Antimicrobial activity against Staphylococcus epidermidis ATCC 12228 after 18 hrs by broth microdilution method; type: functional
[4] = Therapeutic index, ratio of MHC for mouse RBC to geometric mean of peptide MIC for Staphylococcus epidermidis ATCC 12228; type: toxicity; settings: pooled result: one value given for 6 cell lines, strains, targets or settings, read-out: TI
Staphylococcus aureus [5] = assay: Antimicrobial activity against Staphylococcus aureus ATCC 25923 after 18 hrs by broth microdilution method; type: functional
Staphylococcus aureus [6] = assay: Antimicrobial activity against Staphylococcus aureus ATCC 29213 after 18 hrs by broth microdilution method; type: functional
Erythrocyte = assay: Hemolytic activity against mouse erythrocytes measured after 1 hr; type: ADME, cell-based

CCCCCCCCCCCCCC(=O)N[C@@H](Cc1c[nH]c2ccccc12)C(=O)N[C@@H](CCCNC(=N)N)C(=O)N[C@@H](CCCNC(=N)N)C(N)=O (Myristoyl-Trp-Arg-Arg-NH2)
MIC (Staphylococcus aureus [1]): 2 µM (≈ 1.45 µg/mL)
MIC (Bacillus subtilis): 4 µM (≈ 2.9 µg/mL)
MIC (Staphylococcus aureus [2]): 2 µM (≈ 1.45 µg/mL)
MIC [3]: 4 µM (≈ 2.9 µg/mL)
selectivity ratio [4]: 13.7
MIC (Staphylococcus aureus [5]): 8 µM (≈ 5.81 µg/mL)
MIC (Staphylococcus aureus [6]): 8 µM (≈ 5.81 µg/mL)
MHC10 (Erythrocyte): 64 µM

CCCCCCCC(=O)N[C@@H](CCCNC(=N)N)C(=O)N[C@@H](CCCNC(=N)N)C(=O)N[C@@H](CCCNC(=N)N)C(N)=O (Octanoyl-Arg-Arg-Arg-NH2)
MIC (Staphylococcus aureus [1]): > 128 µM
MIC (Bacillus subtilis): > 128 µM
MIC (Staphylococcus aureus [2]): > 128 µM
MIC [3]: > 128 µM
MIC (Staphylococcus aureus [5]): > 128 µM
MIC (Staphylococcus aureus [6]): > 128 µM
MHC10 (Erythrocyte): > 256 µM

CCCCCCCC(=O)N[C@@H](CCCNC(=N)N)C(=O)N[C@@H](CCCNC(=N)N)C(=O)N[C@@H](Cc1c[nH]c2ccccc12)C(N)=O (Octanoyl-Arg-Arg-Trp-NH2)
MIC (Staphylococcus aureus [1]): 128 µM (≈ 82.2 µg/mL)
MIC (Bacillus subtilis): 32 µM (≈ 20.5 µg/mL)
MIC (Staphylococcus aureus [2]): 64 µM (≈ 41.1 µg/mL)
MIC [3]: 64 µM (≈ 41.1 µg/mL)
selectivity ratio [4]: 7.38
MIC (Staphylococcus aureus [5]): 64 µM (≈ 41.1 µg/mL)
MIC (Staphylococcus aureus [6]): 64 µM (≈ 41.1 µg/mL)
MHC10 (Erythrocyte): > 256 µM

CCCCCCCC(=O)N[C@@H](CCCNC(=N)N)C(=O)N[C@@H](Cc1c[nH]c2ccccc12)C(=O)N[C@@H](CCCNC(=N)N)C(N)=O (Octanoyl-Arg-Trp-Arg-NH2)
MIC (Staphylococcus aureus [1]): 128 µM (≈ 82.2 µg/mL)
MIC (Bacillus subtilis): 64 µM (≈ 41.1 µg/mL)
MIC (Staphylococcus aureus [2]): 128 µM (≈ 82.2 µg/mL)
MIC [3]: 128 µM (≈ 82.2 µg/mL)
selectivity ratio [4]: 3.69
MIC (Staphylococcus aureus [5]): > 128 µM
MIC (Staphylococcus aureus [6]): 128 µM (≈ 82.2 µg/mL)
MHC10 (Erythrocyte): > 256 µM

CCCCCCCC(=O)N[C@@H](CCCNC(=N)N)C(=O)N[C@@H](Cc1c[nH]c2ccccc12)C(=O)N[C@@H](Cc1c[nH]c2ccccc12)C(N)=O (Octanoyl-Arg-Trp-Trp-NH2)
MIC (Staphylococcus aureus [1]): 32 µM (≈ 21.5 µg/mL)
MIC (Bacillus subtilis): 16 µM (≈ 10.7 µg/mL)
MIC (Staphylococcus aureus [2]): 8 µM (≈ 5.37 µg/mL)
MIC [3]: 16 µM (≈ 10.7 µg/mL)
selectivity ratio [4]: 29.5
MIC (Staphylococcus aureus [5]): 16 µM (≈ 10.7 µg/mL)
MIC (Staphylococcus aureus [6]): 16 µM (≈ 10.7 µg/mL)
MHC10 (Erythrocyte): > 256 µM

CCCCCCCC(=O)N[C@@H](Cc1c[nH]c2ccccc12)C(=O)N[C@@H](CCCNC(=N)N)C(=O)N[C@@H](CCCNC(=N)N)C(N)=O (Octanoyl-Trp-Arg-Arg-NH2)
MIC (Staphylococcus aureus [1]): 128 µM (≈ 82.2 µg/mL)
MIC (Bacillus subtilis): 64 µM (≈ 41.1 µg/mL)
MIC (Staphylococcus aureus [2]): 64 µM (≈ 41.1 µg/mL)
MIC [3]: 32 µM (≈ 20.5 µg/mL)
selectivity ratio [4]: 5.65
MIC (Staphylococcus aureus [5]): 128 µM (≈ 82.2 µg/mL)
MIC (Staphylococcus aureus [6]): 128 µM (≈ 82.2 µg/mL)
MHC10 (Erythrocyte): > 256 µM

CCCCCCCCCCCCCCCC(=O)N[C@@H](CCCNC(=N)N)C(=O)N[C@@H](CCCNC(=N)N)C(=O)N[C@@H](CCCNC(=N)N)C(N)=O (Palmitoyl-Arg-Arg-Arg-NH2)
MIC (Staphylococcus aureus [1]): 2 µM (≈ 1.45 µg/mL)
MIC (Bacillus subtilis): 8 µM (≈ 5.79 µg/mL)
MIC (Staphylococcus aureus [2]): 8 µM (≈ 5.79 µg/mL)
MIC [3]: 8 µM (≈ 5.79 µg/mL)
selectivity ratio [4]: 5.83
MIC (Staphylococcus aureus [5]): 8 µM (≈ 5.79 µg/mL)
MIC (Staphylococcus aureus [6]): 32 µM (≈ 23.2 µg/mL)
MHC10 (Erythrocyte): 64 µM

CCCCCCCCCCCCCCCC(=O)N[C@@H](CCCNC(=N)N)C(=O)N[C@@H](CCCNC(=N)N)C(=O)N[C@@H](Cc1c[nH]c2ccccc12)C(N)=O (Palmitoyl-Arg-Arg-Trp-NH2)
MIC (Staphylococcus aureus [1]): 2 µM (≈ 1.51 µg/mL)
MIC (Bacillus subtilis): 4 µM (≈ 3.02 µg/mL)
MIC (Staphylococcus aureus [2]): 8 µM (≈ 6.03 µg/mL)
MIC [3]: 8 µM (≈ 6.03 µg/mL)
selectivity ratio [4]: 5.05
MIC (Staphylococcus aureus [5]): 8 µM (≈ 6.03 µg/mL)
MIC (Staphylococcus aureus [6]): 8 µM (≈ 6.03 µg/mL)
MHC10 (Erythrocyte): 32 µM

CCCCCCCCCCCCCCCC(=O)N[C@@H](CCCNC(=N)N)C(=O)N[C@@H](Cc1c[nH]c2ccccc12)C(=O)N[C@@H](CCCNC(=N)N)C(N)=O (Palmitoyl-Arg-Trp-Arg-NH2)
MIC (Staphylococcus aureus [1]): 4 µM (≈ 3.02 µg/mL)
MIC (Bacillus subtilis): 8 µM (≈ 6.03 µg/mL)
MIC (Staphylococcus aureus [2]): 8 µM (≈ 6.03 µg/mL)
MIC [3]: 8 µM (≈ 6.03 µg/mL)
selectivity ratio [4]: 7.38
MIC (Staphylococcus aureus [5]): 8 µM (≈ 6.03 µg/mL)
MIC (Staphylococcus aureus [6]): 16 µM (≈ 12.1 µg/mL)
MHC10 (Erythrocyte): 64 µM

CCCCCCCCCCCCCCCC(=O)N[C@@H](CCCNC(=N)N)C(=O)N[C@@H](Cc1c[nH]c2ccccc12)C(=O)N[C@@H](Cc1c[nH]c2ccccc12)C(N)=O (Palmitoyl-Arg-Trp-Trp-NH2)
MIC (Staphylococcus aureus [1]): 8 µM (≈ 6.27 µg/mL)
MIC (Bacillus subtilis): 64 µM (≈ 50.2 µg/mL)
MIC (Staphylococcus aureus [2]): 32 µM (≈ 25.1 µg/mL)
MIC [3]: 16 µM (≈ 12.5 µg/mL)
selectivity ratio [4]: 18.3
MIC (Staphylococcus aureus [5]): 16 µM (≈ 12.5 µg/mL)
MIC (Staphylococcus aureus [6]): 32 µM (≈ 25.1 µg/mL)
MHC10 (Erythrocyte): > 256 µM

CCCCCCCCCCCCCCCC(=O)N[C@@H](Cc1c[nH]c2ccccc12)C(=O)N[C@@H](CCCNC(=N)N)C(=O)N[C@@H](CCCNC(=N)N)C(N)=O (Palmitoyl-Trp-Arg-Arg-NH2)
MIC (Staphylococcus aureus [1]): 8 µM (≈ 6.03 µg/mL)
MIC (Bacillus subtilis): 8 µM (≈ 6.03 µg/mL)
MIC (Staphylococcus aureus [2]): 8 µM (≈ 6.03 µg/mL)
MIC [3]: 8 µM (≈ 6.03 µg/mL)
selectivity ratio [4]: 4
MIC (Staphylococcus aureus [5]): 8 µM (≈ 6.03 µg/mL)
MIC (Staphylococcus aureus [6]): 8 µM (≈ 6.03 µg/mL)
MHC10 (Erythrocyte): 32 µM

CN[C@H](CC(C)C)C(=O)N[C@H]1C(=O)N[C@@H](CC(N)=O)C(=O)N[C@H]2C(=O)N[C@H]3C(=O)N[C@H](C(=O)N[C@H](C(=O)O)c4cc(O)cc(O)c4-c4cc3ccc4O)[C@H](O)c3ccc(c(Cl)c3)Oc3cc2cc(c3O[C@@H]2O[C@H](CO)[C@@H](O)[C@H](O)[C@H]2O[C@H]2C[C@](C)(N)[C@H](O)[C@H](C)O2)Oc2ccc(cc2Cl)[C@H]1O [VANCOMYCIN]
MIC (Staphylococcus aureus [1]): < 1 µM
MIC (Bacillus subtilis): < 1 µM
MIC (Staphylococcus aureus [2]): < 1 µM
MIC [3]: < 1 µM
MIC (Staphylococcus aureus [5]): < 1 µM
MIC (Staphylococcus aureus [6]): < 1 µM
